Series [1] deals with HFHC fed male C57BL/6 mice. The series is described as follows: In-vivo efficacy in high fat high cholesterol diet (HFHC) fed male C57BL/6 mice. The conditions noted are these: oral, 3 mg/kg BID, 3 mg/kg QD and 10 mg/kg BID, after 28 days.
Protocol: C57BL/6J male mice were purchased at the age of 8 weeks. After an acclimation period of 1 week, animals were maintained on high fat high cholesterol diet (Research diets) with 60% kcal from fat plus 0.5% (w/w) extra cholesterol (Research diet, D02051401) for a period of 4 weeks. Age matched control animals (n=6) were maintained on normal chow. Mice were dosed with vehicle, test compounds and GW4064 morning (7.00 AM) and evening (5:00 PM) from day 0 to 27. At 28th day, animals were dosed at 7:00 AM and kept on fasting for next 4 hours before blood and tissues collection. Plasma samples separated from collected blood were stored at −20° C. immediately for estimation analysis. The samples were analyzed using the Siemens Dimension RxL Max Clinical chemistry analyzer.
Right liver lobe was used for the test compounds exposure, triglyceride and cholesterol estimation. Liver tissues were dissected, weighed and snap frozen and stored at −80° C. for further analysis of hepatic triglyceride, cholesterol and compound exposure. In brief, stored tissues were thawed to room temperature and triglycerides were extracted by homogenizing 25 mg of liver tissues in 1 ml of 5% Triton X100 (Lot No. 61K01741-Sigma Aldrich) in water. Homogenized tissues were slowly heated to 80° C. in water bath for 5 minutes. The samples were cooled down and again heated to solubilize all the triglycerides into solution. The samples were centrifuged for 5 minutes at 4000 RPM and supernatant was collected for quantification^3 using commercially available kit from ERBA (Lot No. B061832).
Homogenized samples were centrifuge at 13000 g for 10 minutes to remove insoluble material. The organic phase was separated into new tube and air dried at 50° C. to remove chloroform. Thereafter, samples were vacuumed for 30 minutes to remove residue organic solvent. Dried lipids were dissolved in 200 μL of cholesterol assay buffer (provided with Sigma cholesterol assay kit Lot No. B2J210603V), sonicated for 20 minutes and vortexed until mixture was homogenous as mentioned in kit protocol. Samples were diluted with cholesterol assay buffer at (1:10) ratio to fit in standard curve and finally 50 μL of diluted samples were used for the assay.
Compound levels were also measured in the plasma and liver to understand its distribution profile.
Series [2] concerns FXR related genes (BSEP, SHP) in primary human hepatocytes. Kind of series: Gene expression in human primary hepatocytes (BSEP, SHP). Type of series: cell-based. The conditions noted are these: 24 hours incubation. Here is the method:
The test compound was dissolved in buffer to give a 10 mM stock solution. The compound was serially diluted to the desired concentrations and then incubated with human primary hepatocytes for 24 hours at 37° C. in a CO2 incubator. After incubation, the media was removed and the RNA harvested using the Trizol-CHCl3 method and quantified using Nano drop. The RNA was then Reverse Transcribed to cDNA using a superscript vilo cDNA synthesis kit. The cDNA with respective Taqman primers, master mix are then amplified using quantitative RT-PCR system. […] The compounds of examples 2 and 3 upregulate FXR related and disease relevant genes on incubation with primary human hepatocytes. […] It is a uni-directional, ATP-dependent efflux transporter that plays an important role in the elimination of bile salts from the hepatocyte into the bile canaliculi for export into the gastrointestinal tract. FXR also induces the expression of small heterodimer partner (SHP) which controls a complex set of genes in multiple metabolic pathways. It reduces the expression of CYP7A1, a liver-specific enzyme that catalyzes the first and rate-limiting step in one of the two pathways for bile acid biosynthesis.

Series [3] is described as follows: Compound exposure in plasma and liver of HFHC fed male mice. Type of series: in vivo. The conditions noted are these: C57BL/6J, mouse, oral.

Where two headings read alike, the source gives them in different places.

In the case of `Cc1cc(S(=O)[O-])cc2sc(N3[C@@H]4CC[C@H]3C[C@@H](OCc3c(-c5ccccc5OC(F)(F)F)noc3C3CC3)C4)nc12.[Na+]` [Example 3, Sodium 2-(3-((5-cyclopropyl-3-(2-(trifluoromethoxy)phenyl)isoxazol-4-yl)methoxy)-8-azabicyclo[3.2.1]octan-8-yl)-4-methylbenzo[d]thiazole-6-sulfinate], the “Cholesterol levels in the liver” value in series [1] was “reductions”. The “Cholesterol levels in the plasma” value in series [1] is “reductions”. For the same compound, the Liver triglycerides entry in series [1] is “reductions”. In addition, the “Expression of FXR related and disease relevant genes (BSEP, SHP)” value in series [2] is given as “upregulate”. Besides, the concentration at 4 h in series [3] (liver, 3 mg/kg, 3 mg/kg BID oral, 4 hours after last dose on day 28, read-out: Mean compound exposure, Liver) was 88.9 ng/g; in series [3] (liver, 10 mg/kg, 10 mg/kg BID oral, 4 hours after last dose on day 28, read-out: Mean compound exposure, Liver), 198 ng/g; in series [3] (liver, 10 mg/kg, 10 mg/kg QD oral, 4 hours after last dose on day 28, read-out: Mean compound exposure, Liver), 176 ng/g; in series [3] (plasma, 3 mg/kg, 3 mg/kg BID oral, 4 hours after last dose on day 28, read-out: Mean compound exposure, Plasma), 3.7 ng/mL; in series [3] (plasma, 10 mg/kg, 10 mg/kg BID oral, 4 hours after last dose on day 28, read-out: Mean compound exposure, Plasma), 11.5 ng/mL; in series [3] (plasma, 10 mg/kg, 10 mg/kg QD oral, 4 hours after last dose on day 28, read-out: Mean compound exposure, Plasma) it was 5.9 ng/mL.

The values are drawn from patent publication US20230096663A1, “FARNESOID X RECEPTOR MODULATING COMPOUNDS AND METHODS OF USING THE SAME” (Inorbit Therapeutics AB, priority 2020, published 2023).
